Activation data for 26 compounds are collected here from patent US12448409B2, “Oxysterols and methods of use thereof” (priority 2016, dated 2025).

The structures appear in SMILES notation. Where two headings read alike, the source gives them in different places. Bounds are passed on as bounds.

This assay concerns the target T1, GlunN1/GluN2A glutamate receptors (Homo sapiens, UniProt Q05586+Q12879).
T1 construct: expressed in transfected cells
Kind of assay: cell-based. The protocol: NMDA potentiation was assessed using the whole cell patch clamp of mammalian cells which expressed NMDA receptors.
Whole-Cell Patch Clamp of Mammalian Cells (Ionworks Barracuda (IWB)
The whole-cell patch-clamp technique was used to investigate the effects of compounds on GlunN1/GluN2A glutamate receptors expressed in mammalian cells.
HEK293 cells were transformed with adenovirus 5 DNA and transfected with cDNA encoding the human GRIN1/GRIN2A genes. Stable transfectants were selected using G418 and Zeocin-resistance genes incorporated into the expression plasmid and selection pressure maintained with G418 and Zeocin in the medium. Cells were cultured in Dulbecco's Modified Eagle Medium/Nutrient Mixture (D-MEM/F-12) supplemented with 10% fetal bovine serum, 100 μg/ml penicillin G sodium, 100 μg/ml streptomycin sulphate, 100 μg/ml Zeocin, 5 μg/ml blasticidin and 500 μg/ml G418.
Test article effects were evaluated in 8-point concentration-response format (4 replicate wells/concentration). All test and control solutions contained 0.3% DMSO and 0.01% Kolliphor® EL (C5135, Sigma). The test article formulations were loaded in a 384-well compound plate using an automated liquid handling system (SciClone ALH3000, Caliper LifeScienses). The measurements were perfomed using Ion Works Barracuda platform following this procedure:
Electrophysiological Procedures:
• a) Intracellular solution (mM): 50 mM CsCl, 90 mM CsF, 2 mM MgCl2, 5 mM EGTA, 10 mM HEPES. Adjust to pH 7.2 with CsOH. • b) Extracellular solution, HB-PS (composition in mM): NaCl, 137; KCl, 1.0; CaCl2, 5; HEPES, 10; Glucose, 10; pH adjusted to 7.4 with NaOH (refrigerated until use). • c) Holding potential: −70 mV, potential during agonist/PAM application: −40 mV. Recording procedure: • a) Extracellular buffer will be loaded into the PPC plate wells (11 μL per well). Cell suspension will be pipetted into the wells (9 μL per well) of the PPC planar electrode. • b) Whole-cell recording configuration will be established via patch perforation with membrane currents recorded by on-board patch clamp amplifiers. • c) Two recordings (scans) will be performed. First, during pre-application of test article alone (duration of pre-application—5 min) and second, during test articles and agonist (EC20 L-glutamate and 30 μM glycine) co-application to detect positive modulatory effects of the test article.
Test Article Administration: The first pre-application will consist of the addition of 20 μL of 2× concentrated test article solution and, second, of 20 μL of 1× concentrated test article and agonist at 10 μL/s (2 second total application time).

Setting [1] is: 3 μM test article, HEK293 cells expressing human GRIN1/GRIN2A, co-application with EC20 L-glutamate and 30 μM glycine, read-out: GluN2A PCA IWB Ephys % potentiation at 3 μM.
Where [2] appears, read: HEK293, read-out: GluN2A PCA IWB Ephys % potentiation at 3 μM.

T1 sequence (Q12879 23-1464, other chains not shown): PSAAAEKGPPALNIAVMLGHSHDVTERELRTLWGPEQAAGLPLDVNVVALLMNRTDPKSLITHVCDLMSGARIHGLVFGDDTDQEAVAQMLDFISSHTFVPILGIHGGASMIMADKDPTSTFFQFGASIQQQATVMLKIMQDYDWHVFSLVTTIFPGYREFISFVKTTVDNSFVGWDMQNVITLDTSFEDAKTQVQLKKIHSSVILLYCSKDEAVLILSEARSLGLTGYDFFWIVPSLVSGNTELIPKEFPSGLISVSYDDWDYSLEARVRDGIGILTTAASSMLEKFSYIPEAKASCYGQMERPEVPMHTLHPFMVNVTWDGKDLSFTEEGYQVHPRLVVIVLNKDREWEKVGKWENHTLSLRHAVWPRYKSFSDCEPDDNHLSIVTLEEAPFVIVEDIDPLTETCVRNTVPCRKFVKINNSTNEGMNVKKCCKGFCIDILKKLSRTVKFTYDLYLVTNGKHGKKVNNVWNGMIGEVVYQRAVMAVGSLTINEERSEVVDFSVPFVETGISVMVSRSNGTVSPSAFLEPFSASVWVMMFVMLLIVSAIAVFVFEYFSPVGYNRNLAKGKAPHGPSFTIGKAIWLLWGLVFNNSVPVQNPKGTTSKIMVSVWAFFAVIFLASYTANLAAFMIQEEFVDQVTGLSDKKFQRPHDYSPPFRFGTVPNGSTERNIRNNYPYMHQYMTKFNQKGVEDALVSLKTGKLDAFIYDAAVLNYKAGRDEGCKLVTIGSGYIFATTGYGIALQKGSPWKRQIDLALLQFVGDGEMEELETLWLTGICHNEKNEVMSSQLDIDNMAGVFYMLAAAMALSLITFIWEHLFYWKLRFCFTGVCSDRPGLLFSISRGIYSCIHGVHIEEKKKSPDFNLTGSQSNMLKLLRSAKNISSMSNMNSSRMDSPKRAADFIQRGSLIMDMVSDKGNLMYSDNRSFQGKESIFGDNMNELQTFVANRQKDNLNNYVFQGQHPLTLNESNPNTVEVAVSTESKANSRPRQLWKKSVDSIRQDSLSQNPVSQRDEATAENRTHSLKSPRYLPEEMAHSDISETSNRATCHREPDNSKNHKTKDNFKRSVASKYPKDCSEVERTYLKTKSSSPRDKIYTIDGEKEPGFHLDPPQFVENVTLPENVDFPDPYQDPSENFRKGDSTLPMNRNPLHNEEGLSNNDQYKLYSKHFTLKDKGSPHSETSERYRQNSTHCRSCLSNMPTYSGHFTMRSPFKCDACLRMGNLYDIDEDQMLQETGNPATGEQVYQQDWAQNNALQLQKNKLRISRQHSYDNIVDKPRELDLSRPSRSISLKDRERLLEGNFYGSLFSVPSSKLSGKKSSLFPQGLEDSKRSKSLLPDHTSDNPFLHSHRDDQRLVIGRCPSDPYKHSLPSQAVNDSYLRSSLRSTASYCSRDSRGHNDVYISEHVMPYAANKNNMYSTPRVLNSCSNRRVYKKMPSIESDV

`CC[C@]1(O)CC[C@@]2(C)[C@@H](CC[C@@H]3[C@@H]2CC[C@]2(C)[C@@H]([C@H](C)CCC4(O)CCC(F)(F)CC4)CC[C@@H]32)C1` [Compound 21]: under setting [1], the activation at 3 µM was greater than 150%.
For `C[C@H](CCC1(O)CCOCC1)[C@H]1CC[C@H]2[C@@H]3CC=C4C[C@@](C)(O)CC[C@]4(C)[C@H]3CC[C@]12C` [Compound 6], under setting [1], the activation at 3 µM is 100 to 150%.
Still for that read-out and setting: the value for `CC[C@]1(O)CC[C@@]2(C)[C@@H](CC[C@@H]3[C@@H]2CC[C@]2(C)[C@@H]([C@H](C)CCC4(O)CCC(C)(C)CC4)CC[C@@H]32)C1` [Compound 22] was 10 to 100%.
In the case of `C[C@H](CCC1(O)CCC(C)(C)CC1)[C@H]1CC[C@H]2[C@@H]3CC=C4C[C@@](C)(O)CC[C@]4(C)[C@H]3CC[C@]12C` [Compound 10], the activation at 3 µM under setting [2] lay in the range of 10 to 100%.
For `CC[C@]1(O)CC[C@@]2(C)[C@@H](CC[C@@H]3[C@@H]2CC[C@]2(C)[C@@H]([C@H](C)CCC4(O)CCCOC4)CC[C@@H]32)C1` (some centres unmarked) [Compound 24], the activation at 3 µM under setting [1] was greater than 150%.
`C[C@H](CC[C@@]1(O)CCOC1)[C@H]1CC[C@H]2[C@@H]3CC=C4C[C@@](C)(O)CC[C@]4(C)[C@H]3CC[C@]12C` [Compound 5-B]: the activation at 3 µM under setting [1] was greater than 150%.
The same measure, in the same setting: under `CC[C@]1(O)CC[C@@]2(C)C(=CC[C@H]3[C@@H]4CC[C@H]([C@H](C)CCC5(O)CCC(C)(C)CC5)[C@@]4(C)CC[C@@H]32)C1` [Compound 13] stands 10 to 100%; under `C[C@H](CCC1(O)CCC1)[C@H]1CC[C@H]2[C@@H]3CC=C4C[C@@](C)(O)CC[C@]4(C)[C@H]3CC[C@]12C` [Compound 4], 100 to 150%.
Still for that read-out and setting: the value for `C[C@H](CCC1(O)CCCOC1)[C@H]1CC[C@H]2[C@@H]3CC[C@H]4C[C@@](C)(O)CC[C@]4(C)[C@H]3CC[C@]12C` (some centres unmarked) [Compound 19] was greater than 150%; that for `C[C@H](CCC1(O)CCOC1)[C@H]1CC[C@H]2[C@@H]3CC=C4C[C@@](C)(O)CC[C@]4(C)[C@H]3CC[C@]12C` (some centres unmarked) [Compound 5] was greater than 150%; that for `C[C@H](CCC1(O)CCC(F)(F)CC1)[C@H]1CC[C@H]2[C@@H]3CC[C@H]4C[C@@](C)(O)CC[C@]4(C)[C@H]3CC[C@]12C` [Compound 16] was 10 to 100%.
Same read-out and setting: under `CC[C@]1(O)CC[C@@]2(C)C(=CC[C@H]3[C@@H]4CC[C@H]([C@H](C)CCC5(O)CCOCC5)[C@@]4(C)CC[C@@H]32)C1` [Compound 14] stands greater than 150%; under `C[C@H](CCC1(O)CCOCC1)[C@H]1CC[C@H]2[C@@H]3CC[C@H]4C[C@@](C)(O)CC[C@]4(C)[C@H]3CC[C@]12C` [Compound 18], greater than 150%.
Regarding `C[C@H](CC[C@]1(O)CCOC1)[C@H]1CC[C@H]2[C@@H]3CC=C4C[C@@](C)(O)CC[C@]4(C)[C@H]3CC[C@]12C` [Compound 5-A], the activation at 3 µM under setting [1] was in the range of 100 to 150%.
Regarding `C[C@H](CCC1(O)CCCC1)[C@H]1CC[C@H]2[C@@H]3CC=C4C[C@@](C)(O)CC[C@]4(C)[C@H]3CC[C@]12C` [Compound 3], the activation at 3 µM under setting [1] was greater than 150%.
Regarding `C[C@H](CCC1(O)CCN(C)CC1)[C@H]1CC[C@H]2[C@@H]3CC=C4C[C@@](C)(O)CC[C@]4(C)[C@H]3CC[C@]12C` [Compound 8], the activation at 3 µM under setting [1] lay in the range of 10 to 100%.
Same read-out and setting: under `C[C@H](CCC1(O)CCCOC1)[C@H]1CC[C@H]2[C@@H]3CC=C4C[C@@](C)(O)CC[C@]4(C)[C@H]3CC[C@]12C` (some centres unmarked) [Compound 11] stands greater than 150%; under `CC[C@]1(O)CC[C@@]2(C)C(=CC[C@H]3[C@@H]4CC[C@H]([C@H](C)CCC5(O)CCC(F)(F)CC5)[C@@]4(C)CC[C@@H]32)C1` [Compound 12], greater than 150%; under `CC(=O)N1CCC(O)(CC[C@@H](C)[C@H]2CC[C@H]3[C@@H]4CC=C5C[C@@](C)(O)CC[C@]5(C)[C@H]4CC[C@]23C)CC1` [Compound 9], greater than 150%.
In the case of `CC[C@]1(O)CC[C@@]2(C)[C@@H](CC[C@@H]3[C@@H]2CC[C@]2(C)[C@@H]([C@H](C)CCC4(O)CCOCC4)CC[C@@H]32)C1` [Compound 23], under setting [1], the activation at 3 µM was greater than 150%.
Still for that read-out and setting: the value for `C[C@H](CCC1(O)CCC(F)(F)CC1)[C@H]1CC[C@H]2[C@@H]3CC=C4C[C@@](C)(O)CC[C@]4(C)[C@H]3CC[C@]12C` [Compound 1] was greater than 150%.
On the same count and under the same terms, the value for `CC[C@]1(O)CC[C@@]2(C)C(=CC[C@H]3[C@@H]4CC[C@H]([C@H](C)CCC5(O)CCCOC5)[C@@]4(C)CC[C@@H]32)C1` (some centres unmarked) [Compound 15] was greater than 150%.
With `C[C@H](CCC1(O)CCNCC1)[C@H]1CC[C@H]2[C@@H]3CC=C4C[C@@](C)(O)CC[C@]4(C)[C@H]3CC[C@]12C` [Compound 7], the activation at 3 µM under setting [2] is 100 to 150%.
In the case of `C[C@H](CCC1(O)CCC(C)(C)CC1)[C@H]1CC[C@H]2[C@@H]3CC[C@H]4C[C@@](C)(O)CC[C@]4(C)[C@H]3CC[C@]12C` [Compound 20], the activation at 3 µM under setting [1] was in the range of 10 to 100%.
For the compound `C[C@H](CCC1(O)CCCCC1)[C@H]1CC[C@H]2[C@@H]3CC=C4C[C@@](C)(O)CC[C@]4(C)[C@H]3CC[C@]12C` [Compound 2], the activation at 3 µM under setting [1] is greater than 150%.
On to `C[C@H](CC[C@]1(O)CCOC1)[C@H]1CC[C@H]2[C@@H]3CC[C@H]4C[C@@](C)(O)CC[C@]4(C)[C@H]3CC[C@]12C` [Compound 17], for which the activation at 3 µM under setting [1] is greater than 150%.
